Ends that are not written are not given here. Peptide text beside a SMILES is read from it.
Assays:
[1] = tested on: tumor cell; experiment: Autophagy: autophagosome and expression of autophagy related proteins (Beclin 1, LC3); type: cell-based; details: 6 h; for expression of autophagic Beclin1 and LC3, single agent: agent alone
Protocol: The cells were seeded and cultured. Targeting peptide was diluted with culture medium. Appropriate concentration of DTX was also prepared for the seeded cells. Equivalent culture medium was added as negative control group; 1×10^−9 M targeting peptide solution was added as Peptide group; 10^−9 M DTX was added as DTX group; 10^−9 M targeting peptide and […] were added as combination group (DTX+P). The cells were incubated at 37° C., 5% CO2 for 6 h to analyze the autophagosome. Protein was extracted to measured expression of autophagy related proteins.

[2] = tested on: A549 cell xenograft; experiment: Human non-small cell lung cancer A549 xenograft nude mice model, tumor growth; type: in vivo, BALB/c nu/nu female nude mice; details: 10 mg/kg based on DTX, intraperitoneal, once a week, four injections
Protocol: A549 cell, a non-small cell lung cancer cell line, growing in logarithmic phase were collected and gently pipetted with 1 ml F-12K media containing […] to prepare the single cell suspension, which was consequently counted with appropriate dilution. The cell suspension was mixed with Matrigel (1:3) under ice bath. The concentration of the cell suspension was adjusted to 8×10^6 cells/ml and stored at 0° C. before transplantation.
Thirty BALB/c nu/nu female nude mice (16 g) were acclimated to the environment for 1 week before the formal experiment. […]
The mice were frequently observed and tumor volume was measured with a Vernier caliper, the volume was calculated by the equation (long diameter×short diameter^2) (½), when tumor reaching a size of 100 mm^3, mice were divided into 4 groups: (1) Saline (control), (2) DTX, (3) TN-DTX and (4) DTX-P7.
Next day after animal grouping, agents were administrated via intraperitoneal injection once a week for a total of four injections. The first administrated day was recorded as Day 0 and the other administrated days were respectively recorded as Day 7, Day 14, Day 21. […]
The mice were measured and weighted every two times a week. Tumor dimensions were measured using calipers. […]

[3] = tested on: HSP90; experiment: Western blotting of HSP90 expression in A549 cells; type: cell-based, human; details: 48 h
Protocol: • (1) lung adenocarcinoma A549 cells were trypsinized and then centrifuged at 800×g for 5 min. The precipitate was re-suspended with PBS and adjusted to 1×10^6 cells/ml. • (2) the cells were seeded into 6-well plate and 2 ml culture medium was added. Then the cells were incubated at 37° C., 5% CO2 overnight. • (3) The peptide was diluted with medium and 300 μl solution was added to each well with a final concentration of 1×10^−4 M. Equal volume of medium was added to the negative well. Triple wells were set for each group and experiment was repeated three times. The plate was incubated at 37° C., 5% CO2 for 48 h. Protein was extracted and subjected to Western blotting analysis.

[4] = tested on: tumor cell; experiment: Apoptosis by Annexin V method and Western blotting of apoptosis related proteins; type: cell-based
Protocol: The cells were seeded and cultured. Targeting peptide was diluted with culture medium. Appropriate concentration of DTX was also prepared for the seeded cells. Equivalent culture medium was added as negative control group, 1×10^−9 M targeting peptide solution added as Peptide group, 10^−9 M DTX added as DTX group, 10^−9 M targeting peptide and […] added as combination group (DTX+P). The cells were incubated at 37° C., 5% CO2 for 6 h to analyze the apoptosis by Annexin V method. The protein was extracted to measure the expression of apoptosis related proteins.

[5] = tested on: Lung adenocarcinoma A549 cells; experiment: CCK-8 cytotoxicity, lung adenocarcinoma A549 cells; type: cell-based; details: human, 48 h
Protocol: (§1) Lung adenocarcinoma A549, breast cancer MCF-7S and melanoma A375 cells were diluted respectively to 3×10^4 cells/ml and pipetted to 96-well plate with 100 μl in each well. Twenty-four hours later, 5, 20, 80 or 320 nM DTX-P7, Paclitaxel-heptapeptide conjugate (PTX-P7), Doxorubicin-NH2-heptapeptide conjugate (DOX-P7) and Doxorubicin-OH-heptapeptide conjugate (DOX-OH-P7) were added to the wells and incubated for 48 h. Then 10 μl CCK-8 was added and measured 1.5 h later at 450 nm to calculate the viability and median inhibitory concentration IC50.

[6] = tested on: breast cancer MCF-7S cells; experiment: CCK-8 cytotoxicity, breast cancer MCF-7S cells; type: cell-based; details: human, 48 h
Protocol: as §1

[7] = tested on: melanoma A375 cells; experiment: CCK-8 cytotoxicity, melanoma A375 cells; type: cell-based; details: human, 48 h
Protocol: as §1

| Compound | expression of autophagic Beclin1 and LC3, single agent [1] | effect on tumor growth [2] | expression of HSP90 [3] | apoptosis (Annexin V), peptide alone ([4]; 6 h, 1×10^−9 M targeting peptide) | apoptosis (Annexin V), peptide combined with DTX ([4]; 6 h, combination group (DTX+P)) | caspase-3 cleavage, peptide alone ([4]; Western blotting) | caspase-3 cleavage, peptide combined with DTX ([4]; Western blotting, compared with DTX alone) | Beclin1 expression and conversion of LC3-I to LC3-II, DTX and targeting peptide simultaneously added ([1]; combination group (DTX+P), compared with DTX treatment only) | IC50 [5] | IC50 [6] | IC50 [7] |
| --- | --- | --- | --- | --- | --- | --- | --- | --- | --- | --- | --- |
| CC(=O)O[C@@]12CO[C@@H]1C[C@H](O)[C@@]1(C)C(=O)[C@H](O)C3=C(C)[C@@H](OC(=O)[C@H](O)[C@@H](NC(=O)OC(C)(C)C)c4ccccc4)C[C@@](O)([C@@H](OC(=O)c4ccccc4)[C@H]21)C3(C)C [DTX, Docetaxel, reference compound] | enhanced the expression the Beclin 1 and conversion of LC3-I to LC3-II | obvious inhibitory effects on the tumor growth |  |  |  |  |  |  |  |  |  |
| LPLTPLP (SEQ ID No: 1) [targeting peptide] | did not affect the expression of these proteins |  | effectively down regulated the expression of HSP90 in a dose-dependent manner | induced apoptosis | further promoted apoptosis when combined with DTX | induce caspase-3 cleavage | the cleavage was further enhanced when combined with DTX compared with DTX alone | significantly inhibited the autophagy induced by DTX |  |  |  |
| COc1ccc2c(c1)C(=O)c1c(O)c3c(c(O)c1C2=O)C[C@@](O)(C(=O)COC(=O)CCC(=O)N[C@@H](CC(C)C)C(=O)N1CCC[C@H]1C(=O)N[C@@H](CC(C)C)C(=O)N[C@H](C(=O)N1CCC[C@H]1C(=O)N[C@@H](CC(C)C)C(=O)N1CCC[C@H]1C(=O)O)[C@@H](C)O)C[C@@H]3OC1CC(N)C(O)C(C)O1 (stereo partly drawn) [DOX-OH-P7] (HELM PEPTIDE1{[COc1ccc2c(c1)C(=O)c1c(O)c3c(c(O)c1C2=O)C[C@@](O)(C(=O)COC(=O)CCC(=O)[*:2])C[C@@H]3OC1CC(N)C(O)C(C)O1].L.P.L.T.P.L.P}$$$$V2.0) |  |  |  |  |  |  |  |  | 6.2 nM | 18.1 nM | 28.4 nM |

— patent US10918731B2, “HSP90 inhibitory peptide conjugate and application thereof in treating tumor” (INSTITUTE OF BASIC MEDICAL SCIENCES, CHINESE ACADEMY OF …, priority 2015, dated 2021)
